Test results published in patent publication US7390826B2, “Inhibitors of animal cell motility and growth” (The Board of Trustees of The University of Illinois, priority 2002, dated 2008).
“Also recorded” adds a separate entry of the source. Where two headings read alike, the source gives them in different places.

Test system: Madin-Darby canine kidney (MDCK) cell monolayers
Assay: scrape-wound closure assay in MDCK cell monolayers
Assay type: cell-based
Settings: for IC50: Canis lupus familiaris, MDCK, 12 h
Excerpt: A method of determining the ability of a compound to inhibit or accelerate cell motility is a scrape-wound closure assay using cultured mammalian epithelial cell monolayers. Mechanical scraping of the epithelial monolayer induces cell sheet migration into the resulting gap, a phenomenon characteristic of wounded epithelia and mechanistically related to normal epithelial movements during embryonic morphogenesis (A. Jacinto et al., Nat. Cell Biol, 3, E117 (2001)). Epithelial cell sheet migration in this method proceeds by a Rac- and phosphoinositide-dependent cell crawling mechanism resembling the motility of other animal cells that move as individuals rather than as cell sheets (G. Fenteany et al., Curr. Biol., 10, 831 (2000)).
Wound closure in MDCK cell monolayers primarily involves cell spreading and motility rather than proliferation based on observations and treatments that block cell growth without inhibiting closure. However, after closure is complete and the gap is covered, cell division is observed in the former wound area, presumably as part of a homeostatic mechanism to regain the original cell density (M. F. Olson et al., Science, 269, 1270 (1995)). Wound closure involves Rac- and phosphoinositide-dependent actin polymerization and protrusion-driven cell crawling behavior, where force generation for movement is distributed from the wound margin to several rows of cells behind the margin. Accordingly, this method is excellent for determining whether a compound affects cell motility.
Cell culture conditions: Madin-Darby canine kidney (MDCK) cells (American Type Culture Collection cell line CCL-34) were cultured in Minimum Essential Medium (with Earle's balanced salts, non-essential amino acids, L-glutamine and sodium pyruvate) supplemented with 10% newborn calf serum at 37° C. and 5% carbon dioxide (CO2). Main cultures were grown in either […] tissue culture flasks with medium changes every two days. When cultures were about 75% confluent, cells were passaged by rinsing twice with single strength phosphate buffered saline (PBS) and treating with a solution of 0.05% (w/v) trypsin/0.02% (w/v) ethylenediaminetetraacetic acid (EDTA) in PBS to detach cells from the flasks. After cells were detached, an equal volume of serum-containing medium was added to inhibit the trypsin and cell density was determined using a hemacytometer. Cells were replated following dilution in fresh medium on new tissue culture flasks for continued culture and multiwell tissue culture plates for experiments. No culture used exceeded 15 passages. Experimental cultures were grown in 12-, 24-, 48-, or 96-well tissue culture plates with medium changes every two days.
Wound closure assay and compound screening: MDCK cells were plated on multiwell tissue culture plates and cultured at 37° C. and 5% CO2 with medium changes every two days until confluent. When the cultures reached confluence, medium was changed again and all experimental treatments were begun a day later. Compounds were solubilized in dimethyl sulfoxide (DMSO) and added with fresh-medium to cell cultures at initial screening concentrations of 10 and 100 μM. Controls consisted of parallel wells to-which DMSO solvent carrier alone was added at the same concentration as that added with experimental treatments (not exceeding 0.1% (v/v)). DMSO alone at this concentration had no detectable effect on the cells. Monolayers were scraped 30 min later with a micropipette and ultramicro tips, allowing small wounds of consistent size to be generated. Progress of wound closure was examined at set time intervals following wounding by microscope, and inhibitory or acceleratory effects on wound closure relative to parallel controls noted. […] Digital images of the wounded monolayers were taken every 2 hours for 18 hours, and then at 30, 36, 54, 60, and 72 hours following wounding. The number of lamellipodia at the wound margin was also counted at these times. […]

C/C=C/C(=O)N1C(=O)OC[C@@H]1Cc1ccccc1 [Compound 1, (4S)-3-((E)-2-butenoyl)-4-benzyl-2-oxazolidinone]
IC50 (read-out: calculated IC50 for inhibition of wound closure at 12 hours): 14 µM | IC50 (read-out: log IC50±standard error of log IC50 (converted)): 14 µM | inhibition of cell motility / epithelial cell sheet migration during wound closure (MDCK cells, p<0.05): potent inhibitor of cell motility; also recorded: inhibits epithelial cell sheet migration during wound closure | inhibition of wound closure in serum-free conditions (serum-free): inhibited wound closure to a similar degree relative to the control | reversibility of inhibition of wound closure (upon changing to compound-free medium): reversible
